Molecular target: T1, CCR4 (Homo sapiens, UniProt P51679)
T1 construct: CEM Cells Endogenous Express CCR4; endogenous in cells; host or cells: CEM cells
T1 sequence (P51679 1-360): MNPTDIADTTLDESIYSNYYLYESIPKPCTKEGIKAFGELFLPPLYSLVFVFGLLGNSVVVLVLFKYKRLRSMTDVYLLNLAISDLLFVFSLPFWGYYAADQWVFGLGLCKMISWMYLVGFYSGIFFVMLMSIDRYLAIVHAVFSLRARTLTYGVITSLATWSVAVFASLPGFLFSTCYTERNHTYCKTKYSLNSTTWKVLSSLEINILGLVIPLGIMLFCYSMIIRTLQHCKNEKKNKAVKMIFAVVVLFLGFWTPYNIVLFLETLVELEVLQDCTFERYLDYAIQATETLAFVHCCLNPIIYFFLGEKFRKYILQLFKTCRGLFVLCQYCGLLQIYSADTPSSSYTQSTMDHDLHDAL
Assay: CEM cell chemotaxis (migration) assay to CCL22 (MDC) in 100% Fetal Bovine Serum (FBS)
Type: cell-based
Conditions: CEM cells in 100% FBS with 1% HEPEs; recombinant human CCL22 0.1 nM; 37° C. 60 minutes
Excerpt: CEM Cells Endogenous Express CCR4
A chemotaxis assay can be used to determine the efficacy of potential receptor antagonists at blocking the migration mediated through chemokine receptors, such as CCR4. This assay is routinely performed using the ChemoTX® microchamber system with a 5 μm pore-sized polycarbonate membrane.
FBS: CEM Cells are collected by centrifugation at 400×g at room temperature, then suspended at 5 million/ml in 100% Fetal Bovine Serum (FBS) with 1% HEPEs. The compound being tested is serially diluted from a maximum final concentration of 10 μM (or an equivalent volume of its solvent (DMSO)) and is then added to the cell/buffer mixture. Separately, recombinant human CCL22 (MDC) at its EC50 concentration (0.1 nM) is placed in the lower wells of the ChemoTX® plate. The 5-μm (pore size) polycarbonate membrane was placed onto the plate, and 20 μL of the cell/compound mixture is transferred onto each well of the membrane. The plates are incubated at 37° C. for 60 minutes, after which the polycarbonate membranes are removed and 5 μl of the DNA-intercalating dye CyQUANT (Invitrogen, Carlsbad, CA) is added to the lower wells. The amount of fluorescence, corresponding to the number of migrated cells, is measured using a Spectrafluor Plus plate reader (TECAN, San Jose, CA).

| SMILES | IC50 [µM] |
| --- | --- |
| C[C@@H](Nc1nc(N2CCN(C(=O)[C@H]3CCC(=O)N3)CC2)nc(N)c1Cl)c1ccc(Cl)cc1Cl [Example 1.084] | < 0.1 |
| C[C@@H](Nc1nc(N2CCN(C(=O)[C@H]3CCC(=O)N3)CC2)ncc1F)c1ccc(F)cc1Cl [Example 1.085] | < 0.1 |
| C[C@@H](Nc1nc(N2CCN(C(=O)[C@H]3CCC(=O)N3)CC2)ncc1F)c1ccc(Cl)cc1F [Example 1.086] | < 0.1 |
| C[C@H]1CC[C@H](C(=O)N[C@H]2CCN(c3ncc(Cl)c(N[C@H](C)c4ccc(Cl)cc4Cl)n3)C[C@@H]2F)N1 [Example 1.087] | < 0.1 |
| C[C@@H](Nc1nc(N2CC[C@H](NC(=O)[C@H]3CCCN3)[C@H](O)C2)ncc1F)c1ccc(Cl)cc1Cl [Example 1.090] | < 0.1 |
| C[C@@H](Nc1nc(N2CC[C@H](NC(=O)[C@H]3CCC(=O)N3)[C@H](O)C2)ncc1F)c1ccc(Cl)cc1Cl [Example 1.091] | > 1 |
| C[C@@H](Nc1cc(C(F)(F)F)nc(N2CCN(C(=O)[C@H]3CCC(=O)N3)CC2)n1)c1ccc(Cl)cc1Cl [Example 1.092] | 0.1 to 1 |
| C[C@@H](Nc1nc(N2CC[C@H](NC(=O)[C@H]3CCC(=O)N3)[C@@H](O)C2)ncc1Cl)c1ccc(Cl)cc1Cl [Example 1.093] | 0.1 to 1 |
| C[C@@H](Nc1nc(N2CC[C@H](NC(=O)[C@H]3CCC(=O)N3)[C@@H](O)C2)ncc1F)c1ccc(Cl)cc1Cl [Example 1.100] | > 1 |
| Cc1nc(N2CCN(C(=O)[C@H]3CCC(=O)N3)[C@H](C)C2)nc(N[C@H](C)c2ccc(Cl)cc2Cl)c1Cl [Example 1.105] | < 0.1 |
| C[C@@H](Nc1nc(N2CC[C@H](NC(=O)[C@H]3CCC(=O)N3)[C@@H](F)C2)ncc1Cl)c1ccc(Cl)cc1Cl [Example 1.106] | 0.1 to 1 |
| C[C@@H](Nc1nc(N2CC[C@H](NC(=O)[C@H]3CCCN3)[C@@H](O)C2)ncc1F)c1ccc(Cl)cc1Cl [Example 1.107] | < 0.1 |
| C[C@@H](Nc1nc(N2CCN(C(=O)[C@H]3CCC(=O)N3)[C@H](CO)C2)ncc1Cl)c1ccc(Cl)cc1Cl [Example 1.109] | < 0.1 |

Further lines, results first:

| IC50 [µM] | SMILES |
| --- | --- |
| 0.1 to 1 | Cc1cc(Cl)ccc1[C@@H](C)Nc1nc(N2CCN(C(=O)[C@H]3CCC(=O)N3)CC2)ncc1Cl [Example 1.088] |
| 0.1 to 1 | Cc1cc(Cl)ccc1[C@@H](C)Nc1nc(N2CCN(C(=O)[C@H]3CCC(=O)N3)CC2)ncc1F [Example 1.089] |
| < 0.1 | C[C@@H](Nc1nc(N2CCN(C(=O)[C@H]3CCCN3)CC2)ncc1N)c1ccc(Cl)cc1Cl [Example 1.094] |
| < 0.1 | C[C@@H](Nc1nc(N2CCN(C(=O)[C@H]3CCC(=O)N3)CC2)ncc1N)c1ccc(Cl)cc1Cl [Example 1.095] |
| < 0.1 | COc1cnc(N2CCN(C(=O)[C@H]3CN(C)C(=O)N3)CC2)nc1N[C@H](C)c1ccc(Cl)cc1Cl [Example 1.096] |
| < 0.1 | Cc1nc(N2CCN(C(=O)[C@H]3CN(C)C(=O)N3)CC2)nc(N[C@H](C)c2ccc(Cl)cc2Cl)c1Cl [Example 1.097] |
| 0.1 to 1 | C[C@@H](Nc1nc(N2CCN(C(=O)[C@H]3CCC(=O)N3)CC2)ncc1C1CC1)c1ccc(Cl)cc1Cl [Example 1.098] |
| 0.1 to 1 | C[C@@H](Nc1nc(N2CCN(C(=O)[C@H]3CCC(=O)N3)CC2)ncc1OCC(F)(F)F)c1ccc(Cl)cc1Cl [Example 1.099] |
| < 0.1 | COCc1cnc(N2CCN(C(=O)[C@H]3CCCN3)CC2)nc1N[C@H](C)c1ccc(Cl)cc1Cl [Example 1.101] |
| < 0.1 | COCc1cnc(N2CCN(C(=O)[C@H]3CCC(=O)N3)CC2)nc1N[C@H](C)c1ccc(Cl)cc1Cl [Example 1.102] |
| < 0.1 | C[C@@H](Nc1nc(N2CCN(C(=O)[C@H]3CN(C)C(=O)N3)CC2)ncc1F)c1ccc(Cl)cc1Cl [Example 1.103] |
| < 0.1 | C[C@@H]1CN(c2ncc(Cl)c(N[C@H](C)c3ccc(Cl)cc3Cl)n2)CCN1C(=O)[C@H]1CN(C)C(=O)N1 [Example 1.104] |
| < 0.1 | C[C@@H](Nc1nc(N2CCN(C(=O)[C@H]3CCCN3)CC2)ncc1OCC(F)(F)F)c1ccc(Cl)cc1Cl [Example 1.108] |

From US20230382894A1, “CCR4 ANTAGONISTS” (CHEMOCENTRYX, INC., priority 2022, published 2023)
